Values quoted from earlier work as cited in patent US12274791B2, “Multiple unit dosage form having a therapeutic agent in combination with a nutritional supplement” (Bonafide Health, LLC, priority 2007, dated 2025).
Like-named read-outs stand apart in the source and are kept apart here.

Row | Compound | toxic effects (rats, levels several thousand times the upper limit of the ESADDI for chromium for humans (based on body weight)) | toxic effects (rat, in vivo)
1 | [Cl][Cr]([Cl])[Cl] [chromium chloride] | without toxic effects | –
2 | Chromium picolinate | – | without toxic effects
